The numbers were not newly measured in patent US20170333571A1, “Targeted Delivery Platform for Delivery of Therapeutics” (The Regents of the University of California, priority 2014, published 2017), which cites them from elsewhere.

No end group written: not given here.

This data set concerns colitis-induced inflammation. Conditions: exogenous administration, rats and mice.

For “Ucn1: small peptide (~38 aa), Urocortin 1 (DNPSLSIDLTFHLLRTLLELARTQSQRERAEQNRIIFDSV; ends and bridges not checked; also: 5FAM label, position not given here (in delivery test); UniProt P55089 83-122, looked up)”, the colitis-induced inflammation result was “reduces colitis-induced inflammation”.
